Assay results reported in patent US9775902B2, “Compounds and methods for treatment of stroke” (FIBROGEN, INC, priority 2006, dated 2017).
Where two headings read alike, the source gives them in different places.

Key:
VEGF [1] = experiment: Plasma VEGF in mice after intravenous injection; format: in vivo, Swiss Webster mice; settings: mouse plasma, 20 mg/kg i.v., four hours after injection; for fold induction at 20 mg/kg: iv, 4 h, read-out: VEGF Fold Increase
Outline: (§1)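 Male Swiss Webster mice (29-34 g) received 20 mg/kg compound or vehicle by tail-vein injection in 5% dextrose with equimolar NaOH or meglumine. Plasma was collected 4 h later, and EPO and VEGF were measured by ELISA.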

erythropoietin (EPO) [2] = experiment: EPO expression in Kelly neuroblastoma cells; format: cell-based; settings: for EPO: conditioned media after overnight incubation
Outline: (§2)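 Kelly neuroblastoma cells treated overnight with compound, 1% DMSO as negative control. EPO and VEGF secreted into conditioned media measured by QUANTIKINE immunoassay.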

VEGF [3] = experiment: Plasma VEGF in mice after oral gavage; format: in vivo, Swiss Webster mice; settings: mouse plasma, oral gavage 6-60 mg/kg, six hours
Procedure: (§3) In another series of experiments, male Swiss Webster mice (29-34 g) were administered various compounds of the present invention via oral gavage using a ball-tipped gavage needle. Animals treated by oral gavage received a 4-10 ml/kg volume of either 0.5% carboxymethyl cellulose with or without 0.1% Polysorbate 80 (vehicle control) or various doses (6-60 mg/kg) of a compound of the present invention in 0.5% CMC, with or without 0.1% Polysorbate 80. Blood samples were collected and tissues were processed as described above. Six hours after injection, the animals were anesthetized and exsanguinated.
(§4) Plasma samples were collected in EDTA and heparin coated microtainer tubes. Plasma samples were assayed for erythropoietin and VEGF using commercially-available ELISA kits purchased from R & D Systems (Minneapolis Minn.).

erythropoietin (EPO) [4] = experiment: EPO expression in Hep3B cells (QUANTIKINE immunoassay of conditioned media); format: cell-based, Human; settings: for Fold Increase Over Control: EPO, vs 1% DMSO control; for EPO: conditioned media after overnight incubation with compound
Outline: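 Confluent Hep3B cells were switched to OPTI-MEM for about 24 h (20% O2, 5% CO2, 37 °C), then treated overnight with compound or 1% DMSO vehicle. EPO secreted into the conditioned medium was measured by QUANTIKINE immunoassay.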

erythropoietin [5] = experiment: Plasma EPO in mice after intravenous injection; format: in vivo, Swiss Webster mice; settings: mouse plasma, 20 mg/kg i.v., four hours after injection; for fold induction at 20 mg/kg: iv, 4 h, read-out: EPO Fold Increase
Outline: as §1

erythropoietin [6] = experiment: Plasma EPO in mice after oral gavage; format: in vivo, Swiss Webster mice; settings: mouse plasma, oral gavage 6-60 mg/kg, six hours
Procedure: as §3, §4

[7] = tested on: vascular endothelial growth factor (VEGF); experiment: VEGF expression in Kelly neuroblastoma cells; format: cell-based; settings: for VEGF: conditioned media after overnight incubation
Outline: as §2

[8] = tested on: C57BL/6 mice, permanent occlusion of the MCA; experiment: Permanent middle cerebral artery occlusion (pMCAO) in C57BL/6 mice: infarct volume and edema; format: in vivo; settings: C57BL/6 mice pMCAO, 20-60 mg/kg i.v.; for inhibition in vivo at up to 20 mg/kg: Mus musculus, iv, 24 h, 24 hours after MCA occlusion, read-out: Percent Reduction in Infarct Volume
Procedure: The effect of compounds of the present invention on infarct volume and edema associated with stroke was examined in an animal model of ischemic stroke. In these studies, mice were subjected to permanent occlusion of the middle cerebral artery. Mice were anesthetized intraperitoneally with avertin (0.5 mg/g). Mice were then immobilized in a rodent stereotaxic frame (Kopf Instruments, Tujunga Calif.) and maintained with avertin as needed. The surgical area of the head was swabbed with 70% ethanol and a lateral incision was made between the right orbit and the right ear. […] The distal course of the middle cerebral artery (MCA) was visible through the translucent skull. A small burr-hole craniotomy was performed with a micro-drill (Fine Science Tools, Foster City Calif.). The meninges/dura was removed and the MCA was coagulated by bipolar diathermy. The muscle and soft tissue were replaced and the incision closed with vet-bond adhesive (3M, St. Paul Minn.). These studies were performed in two different mouse models of pMCAO as described below.
In one series of experiments, male C57BL/6 mice (25-35 g) were subjected to permanent occlusion of the MCA as described above. Compounds of the present invention were administered by intravenous injection at various times before or after MCA occlusion (see Table 7). Animals administered compound by intravenous injection received a 6 ml/kg volume of either 5% Dextrose with an equimolar amount of Meglumine (vehicle control) or 20-60 mg/kg of a compound of the present invention in 5% dextrose with an equimolar amount of Meglumine. Body temperature of the animals was maintained by use of a heating pad both during and after surgery. Twenty-four hours after MCA occlusion animals were euthanized with CO2 and their brains removed. After removal, the brain was sliced in 7 coronal sections, each 1 mm thick. The sections were placed rostral side down in a petri dish and stained with 1% Triphenyl tetrazolium chloride for 20 minutes at 37° C. for determination of infarct volume. Brain sections were then digitally photographed and analyzed for changes in infarct volume and extent of edema. Infarct volumes were determined by measuring the infarcted (i.e., non-stained) areas of each brain section and multiplying this value by the section thickness. Extent of edema was determined by the net increase in volume of the ipsilateral cortex compared to that of the contralateral cortex of brain sections.
The effect of compounds of the present invention administered at various times following the onset of stroke was examined further as follows. In these studies, changes in infarct volume were measured using an animal model of stroke when compounds of the present invention were administered from 0 to 8 hours following permanent MCA occlusion. In one series of experiments, male C57BL/6 mice (25-35 g) were subjected to permanent occlusion of the MCA as described above. Compound F was administered to the animals by a single intravenous bolus injection at various times up to 5 hours after MCA occlusion (see Table 8 below). Animals administered compound by intravenous injection received a 6 ml/kg volume of either 5% Dextrose with an equimolar amount of NaOH (vehicle control) or 60 mg/kg of Compound F in 5% dextrose with an equimolar amount of NaOH. Body temperature of the animals was maintained by use of a heating pad both during and after surgery. Changes in infarct volumes were determined as described above.
In another set of experiments, male C57BL/6 mice (25-35 g) were subjected to permanent occlusion of the MCA as described above. Compound F was administered by single intravenous bolus injection at various times up to 8 hours after MCA occlusion (see Table 9 below). Animals administered compound by intravenous injection received a 6 ml/kg volume of either 5% Dextrose with an equimolar amount of Meglumine (vehicle control) or 60 mg/kg of Compound F in 5% dextrose with an equimolar amount of Meglumine. […]

[9] = tested on: vascular endothelial growth factor (VEGF); experiment: Brain VEGF gene expression in mice after intravenous injection; format: in vivo, Swiss Webster mice; settings: 20 mg/kg i.v., four hours, quantitative real time PCR normalized to 18s RNA
Procedure: The effect of compounds of the present invention on regulation of cytoprotective and neuroprotective gene expression in brain was evaluated. In one series of experiments, male Swiss Webster mice were administered by intravenous injection various compounds of the present invention. Animals treated by intravenous injection received a 6 ml/kg volume of either 5% Dextrose with an equimolar amount of Meglumine (vehicle control) or 20 mg/kg of a compound of the present invention in 5% dextrose with an equimolar amount of Meglumine Animals were euthanized four hours later and their brains placed in RNAlater (Ambion, Austin Tex.) for subsequent analysis. Tissues were homogenized in Trizol (Invitrogen, Carlsbad Calif.) using 5-mm steel beads in a Mixer Mill (Qiagen, Valencia Calif.). RNA was isolated from the Trizol solution and then further purified using RNeasy kit (Qiagen). cDNA was prepared from […] total RNA using Omniscript reverse transcriptase (Qiagen) and random hexamers. Quantitative real time PCR was performed in a 7900HT instrument (Applied Biosystems, Foster City Calif.) using TaqMan Assays-on-Demand (Applied Biosystems). Gene expression levels were normalized to that of 18s RNA.

[10] = compound given 4 hr after occlusion

Compound: O=C(O)CNC(=O)c1nc(Cl)c2ccsc2c1O [Compound L, [(4-Chloro-7-hydroxy-thieno[3,2-c]pyridine-6-carbonyl)-amino]-acetic acid]
- fold induction at 20 mg/kg (VEGF [1]): 0.43
- VEGF (VEGF [1]): 13 pg/mL
- EPO Fold Increase (erythropoietin (EPO) [2]): 5.2
- EPO (erythropoietin (EPO) [2]): 98.2 mIU/ml
- VEGF (VEGF [3]): 41 pg/mL
- VEGF Fold Increase (VEGF [3]): 1.32
- Fold Increase Over Control (erythropoietin (EPO) [4]): 4.2
- EPO (erythropoietin (EPO) [4]): 11.1 mIU/ml
- fold induction at 20 mg/kg (erythropoietin [5]): 14.6
- EPO (erythropoietin [5]; mouse EPO ELISA kit (**)): 400.3 pg/mL
- EPO Fold Increase (erythropoietin [6]): 11.81
- EPO (erythropoietin [6]; mouse EPO ELISA kit (**)): 82.7 pg/mL
- VEGF Fold Increase [7]: 3.3
- VEGF [7]: 4750.0 pg/mL
- inhibition in vivo at up to 20 mg/kg [8, 10]: 48%

Compound: O=C(O)CNC(=O)c1ncc2ccc(Sc3ccccn3)cc2c1O [Compound AB, {[4-Hydroxy-6-(pyridin-2-ylsulfanyl)-isoquinoline-3-carbonyl]-amino}-acetic acid]
- VEGF gene expression in brain [9]: 2.1

Compound: O=C(O)CNC(=O)c1ncc2cc(Oc3ccc(F)cc3)ccc2c1O [Compound G, {[7-(4-Fluoro-phenoxy)-4-hydroxy-isoquinoline-3-carbonyl]-amino}-acetic acid]
- fold induction at 20 mg/kg (VEGF [1]): 2.46
- VEGF (VEGF [1]): 86.5 pg/mL
- EPO Fold Increase (erythropoietin (EPO) [2]): 5.5
- EPO (erythropoietin (EPO) [2]): 34.4 mIU/ml
- VEGF (VEGF [3]): 110.8 pg/mL
- VEGF Fold Increase (VEGF [3]): 2.58
- Fold Increase Over Control (erythropoietin (EPO) [4]): 5.1
- EPO (erythropoietin (EPO) [4]): 73.4 mIU/ml
- fold induction at 20 mg/kg (erythropoietin [5]): 270
- EPO (erythropoietin [5]; human EPO ELISA kit (*)): 162 mIU/ml
- EPO Fold Increase (erythropoietin [6]): 123.57
- EPO (erythropoietin [6]; human EPO ELISA kit (*)): 173 mIU/ml
- VEGF Fold Increase [7]: 14.4
- VEGF [7]: 2271.5 pg/mL
- inhibition in vivo at up to 20 mg/kg [8, 10]: 48%

Compound: O=C(O)CNC(=O)c1ncc2cc(Sc3ccccc3)ccc2c1O [Compound E, [(4-Hydroxy-7-phenylsulfanyl-isoquinoline-3-carbonyl)-amino]-acetic acid]
- fold induction at 20 mg/kg (VEGF [1]): 1.58
- VEGF (VEGF [1]): 66.5 pg/mL
- EPO Fold Increase (erythropoietin (EPO) [2]): 9.0
- EPO (erythropoietin (EPO) [2]): 55.8 mIU/ml
- VEGF (VEGF [3]): 65.4 pg/mL
- VEGF Fold Increase (VEGF [3]): 1.63
- Fold Increase Over Control (erythropoietin (EPO) [4]): 17.0
- EPO (erythropoietin (EPO) [4]): 127.6 mIU/ml
- EPO (erythropoietin [5]; human EPO ELISA kit (*)): 122 mIU/ml
- EPO (erythropoietin [6]; human EPO ELISA kit (*)): 17.4 mIU/ml
- VEGF Fold Increase [7]: 15.8
- VEGF [7]: 2495.8 pg/mL
- Percent Reduction in Edema ([8]; compound given −6 hr): 54%
- inhibition in vivo at up to 20 mg/kg [8, 10]: 9%
- inhibition in vivo at up to 20 mg/kg ([8]; compound given −6 hr): 51%

Compound: O=C(O)CNC(=O)c1ncc2cc(Oc3ccc4c(c3)OCO4)ccc2c1O [Compound O, {[7-(Benzo[1,3]dioxol-5-yloxy)-4-hydroxy-isoquinoline-3-carbonyl]-amino}-acetic acid]
- fold induction at 20 mg/kg (VEGF [1]): 2.21
- VEGF (VEGF [1]): 64 pg/mL
- EPO Fold Increase (erythropoietin (EPO) [2]): 7.93
- EPO (erythropoietin (EPO) [2]): 149.8 mIU/ml
- VEGF (VEGF [3]): 46 pg/mL
- VEGF Fold Increase (VEGF [3]): 1.48
- Fold Increase Over Control (erythropoietin (EPO) [4]): 14.7
- EPO (erythropoietin (EPO) [4]): 97.4 mIU/ml
- fold induction at 20 mg/kg (erythropoietin [5]): 174
- EPO (erythropoietin [5]; mouse EPO ELISA kit (**)): 157 pg/mL
- EPO Fold Increase (erythropoietin [6]): 11.87
- EPO (erythropoietin [6]; mouse EPO ELISA kit (**)): 83.1 pg/mL
- VEGF Fold Increase [7]: 3.6
- VEGF [7]: 5235 pg/mL
- inhibition in vivo at up to 20 mg/kg ([8]; compound given 0 hr): 31%

Compound: CC(NC(=O)c1ncc2cc(Oc3ccccc3)ccc2c1O)C(=O)O (stereo not shown) [Compound I, 2-[(4-Hydroxy-7-phenoxy-isoquinoline-3-carbonyl)-amino]-propionic acid]
- fold induction at 20 mg/kg (VEGF [1]): 2.13
- VEGF (VEGF [1]): 77.8 pg/mL
- EPO Fold Increase (erythropoietin (EPO) [2]): 3.4
- EPO (erythropoietin (EPO) [2]): 14.8 mIU/ml
- VEGF (VEGF [3]): 62.7 pg/mL
- VEGF Fold Increase (VEGF [3]): 2.71
- EPO (erythropoietin (EPO) [4]): 41.0 mIU/ml
- fold induction at 20 mg/kg (erythropoietin [5]): 155
- EPO (erythropoietin [5]; human EPO ELISA kit (*)): 62.1 mIU/ml
- EPO Fold Increase (erythropoietin [6]): 16.46
- EPO (erythropoietin [6]; human EPO ELISA kit (*)): 21.4 mIU/ml
- VEGF Fold Increase [7]: 7.2
- VEGF [7]: 2370.0 pg/mL

Compound: O=C(O)CNC(=O)c1ncc2cc(Oc3ccc4c(c3)CCO4)ccc2c1O [Compound X, {[7-(2,3-Dihydro-benzofuran-5-yloxy)-4-hydroxy-isoquinoline-3-carbonyl]-amino}-acetic acid]
- fold induction at 20 mg/kg (VEGF [1]): 2.4
- VEGF (VEGF [1]): 48 pg/mL
- EPO Fold Increase (erythropoietin (EPO) [2]): 13.76
- EPO (erythropoietin (EPO) [2]): 260.1 mIU/ml
- VEGF (VEGF [3]): 36 pg/mL
- VEGF Fold Increase (VEGF [3]): 1.16
- Fold Increase Over Control (erythropoietin (EPO) [4]): 19.0
- EPO (erythropoietin (EPO) [4]): 126.2 mIU/ml
- EPO (erythropoietin [5]; mouse EPO ELISA kit (**)): 183 pg/mL
- EPO Fold Increase (erythropoietin [6]): 5.86
- EPO (erythropoietin [6]; mouse EPO ELISA kit (**)): 41 pg/mL
- VEGF Fold Increase [7]: 3.9
- VEGF [7]: 5751 pg/mL
- inhibition in vivo at up to 20 mg/kg ([8]; compound given 0 hr): 36%
